One experiment has as its target Dipeptidyl peptidase 2 (Homo sapiens, UniProt Q9UHL4). The experiment in a line: Inhibition of QPP.
For another experiment, the target named is T1, Prolyl endopeptidase FAP (Homo sapiens, UniProt Q12884).
T1 sequence (Q12884 whole entry): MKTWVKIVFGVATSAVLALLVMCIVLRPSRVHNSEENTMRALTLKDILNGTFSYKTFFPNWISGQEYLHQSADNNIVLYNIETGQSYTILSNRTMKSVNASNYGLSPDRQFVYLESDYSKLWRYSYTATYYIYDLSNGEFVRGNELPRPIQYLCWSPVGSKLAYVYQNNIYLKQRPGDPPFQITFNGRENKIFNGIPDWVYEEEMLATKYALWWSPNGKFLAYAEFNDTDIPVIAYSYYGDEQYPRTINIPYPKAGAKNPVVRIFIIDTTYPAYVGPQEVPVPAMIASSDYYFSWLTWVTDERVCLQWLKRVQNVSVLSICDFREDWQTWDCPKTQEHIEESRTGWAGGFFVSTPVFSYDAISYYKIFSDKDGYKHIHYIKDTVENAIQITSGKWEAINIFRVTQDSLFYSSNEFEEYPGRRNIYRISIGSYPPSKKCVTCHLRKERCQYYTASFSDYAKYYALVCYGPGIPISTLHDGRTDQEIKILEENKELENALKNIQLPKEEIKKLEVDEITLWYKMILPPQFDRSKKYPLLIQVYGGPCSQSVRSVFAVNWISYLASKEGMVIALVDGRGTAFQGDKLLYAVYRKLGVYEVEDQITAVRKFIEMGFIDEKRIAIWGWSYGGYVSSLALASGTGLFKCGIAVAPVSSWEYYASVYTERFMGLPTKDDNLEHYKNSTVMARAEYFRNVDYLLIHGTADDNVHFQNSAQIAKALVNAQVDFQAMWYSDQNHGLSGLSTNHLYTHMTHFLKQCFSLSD
Kind of experiment: Inhibition of FAP.

The next experiment addresses Dipeptidyl peptidase 4 (Homo sapiens, UniProt P27487).
The next experiment has as its target Dipeptidyl peptidase 8 (Homo sapiens, UniProt Q6V1X1). The experiment in a line: Inhibition of DPP8.

Dipeptidyl peptidase 8, sequence (Q6V1X1 whole entry): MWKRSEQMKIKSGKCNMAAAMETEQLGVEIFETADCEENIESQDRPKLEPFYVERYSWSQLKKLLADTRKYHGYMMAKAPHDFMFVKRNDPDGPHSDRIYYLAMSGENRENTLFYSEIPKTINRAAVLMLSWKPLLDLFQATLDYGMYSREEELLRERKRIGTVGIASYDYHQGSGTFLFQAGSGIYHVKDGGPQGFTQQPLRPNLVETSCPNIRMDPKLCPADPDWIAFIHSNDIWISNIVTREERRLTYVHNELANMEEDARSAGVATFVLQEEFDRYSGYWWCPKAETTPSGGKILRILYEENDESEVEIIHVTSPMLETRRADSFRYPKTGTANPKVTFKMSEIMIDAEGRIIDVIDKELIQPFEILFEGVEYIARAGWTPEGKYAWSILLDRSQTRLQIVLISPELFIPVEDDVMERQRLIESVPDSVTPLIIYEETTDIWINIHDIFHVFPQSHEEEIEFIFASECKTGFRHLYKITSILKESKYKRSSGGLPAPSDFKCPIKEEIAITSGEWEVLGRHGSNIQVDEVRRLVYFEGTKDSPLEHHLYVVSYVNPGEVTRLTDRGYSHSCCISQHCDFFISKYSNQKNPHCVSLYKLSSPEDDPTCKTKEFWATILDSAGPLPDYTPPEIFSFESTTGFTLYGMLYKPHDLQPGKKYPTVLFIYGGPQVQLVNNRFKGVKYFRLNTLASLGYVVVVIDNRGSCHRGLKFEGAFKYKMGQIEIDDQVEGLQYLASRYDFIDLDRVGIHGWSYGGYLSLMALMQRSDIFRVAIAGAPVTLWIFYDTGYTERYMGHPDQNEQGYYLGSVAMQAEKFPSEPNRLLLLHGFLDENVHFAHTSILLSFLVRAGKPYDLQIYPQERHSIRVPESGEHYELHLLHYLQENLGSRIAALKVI
Dipeptidyl peptidase 4, sequence (P27487 whole entry): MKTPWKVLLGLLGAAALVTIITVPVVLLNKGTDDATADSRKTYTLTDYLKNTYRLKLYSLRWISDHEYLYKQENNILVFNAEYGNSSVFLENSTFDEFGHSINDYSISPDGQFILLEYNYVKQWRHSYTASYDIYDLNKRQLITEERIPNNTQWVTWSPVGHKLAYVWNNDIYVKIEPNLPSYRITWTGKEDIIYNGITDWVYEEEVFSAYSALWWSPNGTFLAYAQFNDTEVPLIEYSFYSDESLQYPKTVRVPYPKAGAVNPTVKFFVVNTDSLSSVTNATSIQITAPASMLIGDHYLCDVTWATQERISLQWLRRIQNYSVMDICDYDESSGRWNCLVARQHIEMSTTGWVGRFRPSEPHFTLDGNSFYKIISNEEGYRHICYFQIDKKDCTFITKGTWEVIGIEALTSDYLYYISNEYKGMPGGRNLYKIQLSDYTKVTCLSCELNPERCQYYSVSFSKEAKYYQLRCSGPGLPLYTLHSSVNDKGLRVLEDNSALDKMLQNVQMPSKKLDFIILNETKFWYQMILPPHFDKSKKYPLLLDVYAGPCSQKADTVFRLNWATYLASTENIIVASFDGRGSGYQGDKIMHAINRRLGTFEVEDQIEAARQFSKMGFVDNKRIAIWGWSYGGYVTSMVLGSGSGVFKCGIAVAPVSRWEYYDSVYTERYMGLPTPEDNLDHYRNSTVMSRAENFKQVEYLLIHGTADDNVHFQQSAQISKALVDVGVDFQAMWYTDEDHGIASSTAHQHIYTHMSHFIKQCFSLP

As to `N[C@H](Cc1cc(F)ccc1F)[C@H]1CC[C@H](N2CCn3c(nnc3C(F)(F)F)C2)CC1`, the figures for the IC50 against Dipeptidyl peptidase 2, at Prolyl endopeptidase FAP and at Dipeptidyl peptidase 4 were 18 µM, above 35 µM and 0.33 µM, respectively.

On to `N[C@H](C(=O)N1CCSC1)[C@H]1CC[C@H](NC(=O)c2ccc(OC(F)(F)F)cc2)CC1`, for which, at Prolyl endopeptidase FAP, the IC50 (commonly the concentration at which inhibition is half-maximal) was above 35 µM.

For the molecule `CN([C@H]1CC[C@H]([C@H](N)Cc2cc(F)ccc2F)CC1)S(=O)(=O)c1ccccc1`, the IC50 against Prolyl endopeptidase FAP is above 35 µM.

Turning to `CN([C@H]1CC[C@H]([C@H](N)Cc2cc(F)ccc2F)CC1)S(=O)(=O)c1ccccc1C(F)(F)F`, the IC50 at Prolyl endopeptidase FAP was above 35 µM.

`CN([C@H]1CC[C@H]([C@H](N)Cc2cc(F)ccc2F)CC1)S(=O)(=O)c1cccc(C#N)c1`: the IC50 at Dipeptidyl peptidase 2 was 9.6 µM; on Prolyl endopeptidase FAP, above 35 µM; at Dipeptidyl peptidase 8, above 69 µM; on Dipeptidyl peptidase 4, 0.085 µM.

For the molecule `CN([C@H]1CC[C@H]([C@H](N)Cc2cc(F)ccc2F)CC1)S(=O)(=O)c1ccc(C#N)cc1`, the IC50 was 23 µM on Dipeptidyl peptidase 2, above 35 µM against Prolyl endopeptidase FAP, above 100 µM on Dipeptidyl peptidase 8 and 0.18 µM against Dipeptidyl peptidase 4.

With `CN([C@H]1CC[C@H]([C@H](N)Cc2cc(F)ccc2F)CC1)S(=O)(=O)c1ccc(N)cc1`, the half-maximal inhibitory concentration (IC50) against Prolyl endopeptidase FAP is above 35 µM.

For `CN([C@H]1CC[C@H]([C@H](N)Cc2cc(F)ccc2F)CC1)S(=O)(=O)c1ccc(C(N)=O)cc1`, on Prolyl endopeptidase FAP, the concentration for half-maximal inhibition (IC50) was above 35 µM.

Molecule `CN([C@H]1CC[C@H]([C@H](N)Cc2cc(F)ccc2F)CC1)S(=O)(=O)c1ccc(F)cc1F` came in with an IC50 on Prolyl endopeptidase FAP above 35 µM.

As for `CN([C@H]1CC[C@H]([C@H](N)Cc2cc(F)ccc2F)CC1)S(=O)(=O)c1ccc(-c2cnco2)cc1`, at Prolyl endopeptidase FAP, the IC50 is above 35 µM.

Regarding `CC(=O)Nc1nc(C)c(S(=O)(=O)N(C)[C@H]2CC[C@H]([C@H](N)Cc3cc(F)ccc3F)CC2)s1`, the IC50 at Prolyl endopeptidase FAP is above 35 µM.

Consider `CN([C@H]1CC[C@H]([C@H](N)Cc2cc(F)ccc2F)CC1)S(=O)(=O)c1cccnc1`, for which the IC50 on Dipeptidyl peptidase 2 is 35 µM; against Prolyl endopeptidase FAP, above 35 µM; against Dipeptidyl peptidase 8 it was above 100 µM; against Dipeptidyl peptidase 4 it was 0.11 µM.

`CCN([C@H]1CC[C@H]([C@H](N)Cc2cc(F)ccc2F)CC1)S(=O)(=O)c1c(C)noc1C`: the IC50 is 29 µM on Dipeptidyl peptidase 2, above 35 µM on Prolyl endopeptidase FAP, above 100 µM on Dipeptidyl peptidase 8 and 0.038 µM against Dipeptidyl peptidase 4.

In the case of `Cc1noc(C)c1S(=O)(=O)N(Cc1ccccc1)[C@H]1CC[C@H]([C@H](N)Cc2cc(F)ccc2F)CC1`, the IC50 against Dipeptidyl peptidase 2 was 10 µM; at Prolyl endopeptidase FAP, above 35 µM; at Dipeptidyl peptidase 8, above 100 µM; against Dipeptidyl peptidase 4 it was 0.67 µM.

As to `CCN([C@H]1CC[C@H]([C@H](N)Cc2cc(F)ccc2F)CC1)S(C)(=O)=O`, the IC50 was 68 µM against Dipeptidyl peptidase 2, above 35 µM against Prolyl endopeptidase FAP, above 100 µM against Dipeptidyl peptidase 8 and 0.26 µM against Dipeptidyl peptidase 4.

Take `CS(=O)(=O)N(Cc1ccccc1)[C@H]1CC[C@H]([C@H](N)Cc2cc(F)ccc2F)CC1`: the IC50 was 11 µM on Dipeptidyl peptidase 2, above 35 µM at Prolyl endopeptidase FAP, above 100 µM at Dipeptidyl peptidase 8 and 1.3 µM against Dipeptidyl peptidase 4.

Consider `CC(=O)N(C)[C@H]1CC[C@@H]([C@H](N)Cc2cc(F)ccc2F)CC1`, for which the figures for the IC50 at Dipeptidyl peptidase 2, at Prolyl endopeptidase FAP and at Dipeptidyl peptidase 4 were above 100 µM, above 35 µM and 0.99 µM, respectively.

On to `CC(C)C(=O)N(C)[C@H]1CC[C@H]([C@H](N)Cc2cc(F)ccc2F)CC1`, for which the IC50 at Dipeptidyl peptidase 2 was above 100 µM; against Prolyl endopeptidase FAP it was above 35 µM; at Dipeptidyl peptidase 8 it was above 100 µM; at Dipeptidyl peptidase 4 it was 0.13 µM.

At Prolyl endopeptidase FAP, `CN(C(=O)C(C)(C)C)[C@H]1CC[C@H]([C@H](N)Cc2cc(F)ccc2F)CC1` yielded an IC50 above 35 µM.

For the molecule `CN(C(=O)CCN)[C@H]1CC[C@H]([C@H](N)Cc2cc(F)ccc2F)CC1`, the concentration for half-maximal inhibition (IC50) was above 100 µM at Dipeptidyl peptidase 2, above 35 µM against Prolyl endopeptidase FAP, above 100 µM against Dipeptidyl peptidase 8 and 0.73 µM against Dipeptidyl peptidase 4.

For `CN(C(=O)c1cccnc1)[C@H]1CC[C@H]([C@H](N)Cc2cc(F)ccc2F)CC1`, the IC50 was 58 µM at Dipeptidyl peptidase 2, above 35 µM against Prolyl endopeptidase FAP, above 100 µM on Dipeptidyl peptidase 8 and 0.14 µM on Dipeptidyl peptidase 4.

On Prolyl endopeptidase FAP, `CN(C(=O)c1csnn1)[C@H]1CC[C@H]([C@H](N)Cc2cc(F)ccc2F)CC1` returned an IC50 above 35 µM.

Take `CN(C(=O)c1ccno1)[C@H]1CC[C@H]([C@H](N)Cc2cc(F)ccc2F)CC1`: the IC50 against Dipeptidyl peptidase 2 is 58 µM; against Prolyl endopeptidase FAP it was above 35 µM; on Dipeptidyl peptidase 8, above 100 µM; at Dipeptidyl peptidase 4, 0.12 µM.

At Prolyl endopeptidase FAP, `CN(C(=O)c1c[nH]c2ccccc12)[C@H]1CC[C@H]([C@H](N)Cc2cc(F)ccc2F)CC1` registered an IC50 above 35 µM.

On Prolyl endopeptidase FAP, `Cc1noc(C)c1C(=O)N(C)[C@H]1CC[C@H]([C@H](N)Cc2cc(F)ccc2F)CC1` registered a concentration for half-maximal inhibition (IC50) above 35 µM.

Regarding `Cn1ccc(C(=O)N(C)[C@H]2CC[C@H]([C@H](N)Cc3cc(F)ccc3F)CC2)n1`, the concentration for half-maximal inhibition (IC50) is 21 µM against Dipeptidyl peptidase 2, above 35 µM against Prolyl endopeptidase FAP, above 100 µM on Dipeptidyl peptidase 8 and 0.14 µM on Dipeptidyl peptidase 4.

Take `CC(=O)N(Cc1ccccc1)[C@H]1CC[C@H]([C@H](N)Cc2cc(F)ccc2F)CC1`: the IC50 against Dipeptidyl peptidase 2 is 17 µM; against Prolyl endopeptidase FAP, above 35 µM; on Dipeptidyl peptidase 8, above 100 µM; on Dipeptidyl peptidase 4, 0.11 µM.

With `N[C@H](Cc1cc(F)ccc1F)[C@H]1CC[C@@H](N2CCC(F)(F)C2)CC1`, on Prolyl endopeptidase FAP, the IC50 is above 35 µM.

For the molecule `N[C@H](Cc1cc(F)ccc1F)[C@H]1CC[C@H](N2CCC(F)(F)C2)CC1`, the IC50 against Prolyl endopeptidase FAP is above 35 µM.

Consider `N[C@H](Cc1cc(F)ccc1F)[C@H]1CC[C@@H](N2CCn3c(nnc3C(F)(F)F)C2)CC1`, for which the IC50 was above 100 µM against Dipeptidyl peptidase 2, above 35 µM against Prolyl endopeptidase FAP and 0.28 µM on Dipeptidyl peptidase 4.

In the case of `N[C@H](Cc1cc(F)ccc1F)[C@H]1CC[C@@H](N2CCCCC2)CC1`, at Prolyl endopeptidase FAP, the IC50 is above 35 µM.

`N[C@H](Cc1cc(F)ccc1F)[C@H]1CC[C@H](N2CCCCC2)CC1`: the IC50 on Prolyl endopeptidase FAP is above 35 µM.

At Prolyl endopeptidase FAP, `NC(=O)C1CCCN([C@H]2CC[C@@H]([C@H](N)Cc3cc(F)ccc3F)CC2)C1` (stereo partly specified) yielded a concentration for half-maximal inhibition (IC50) above 35 µM.

On Prolyl endopeptidase FAP, `NC(=O)[C@H]1CCCN([C@H]2CC[C@H]([C@H](N)Cc3cc(F)ccc3F)CC2)C1` displayed an IC50 above 35 µM.

As for `NC(=O)O[C@@H]1CCCN([C@H]2CC[C@H]([C@H](N)Cc3cc(F)ccc3F)CC2)C1`, the IC50 against Prolyl endopeptidase FAP was above 35 µM.

For `N[C@H](Cc1cc(F)ccc1F)[C@H]1CC[C@H](N2CCC[C@@H](O)C2)CC1`, the figures for the IC50 on Dipeptidyl peptidase 2, against Prolyl endopeptidase FAP and on Dipeptidyl peptidase 4 were above 100 µM, above 35 µM and 0.27 µM, respectively.

In turn, `N[C@H](Cc1cc(F)ccc1F)[C@H]1CC[C@H](NCCCC(F)(F)F)CC1` had a half-maximal inhibitory concentration (IC50) on Prolyl endopeptidase FAP above 35 µM.

With `CN(Cc1ccc(C#N)cc1)[C@H]1CC[C@H]([C@H](N)Cc2cc(F)ccc2F)CC1`, the IC50 on Dipeptidyl peptidase 2 is 12 µM; on Prolyl endopeptidase FAP, above 35 µM; against Dipeptidyl peptidase 8 it was above 100 µM; at Dipeptidyl peptidase 4, 0.29 µM.

With `CN(Cc1cccc(C#N)c1)[C@H]1CC[C@H]([C@H](N)Cc2cc(F)ccc2F)CC1`, the IC50 on Dipeptidyl peptidase 2 is 14 µM; against Prolyl endopeptidase FAP, above 35 µM; on Dipeptidyl peptidase 8, above 100 µM; against Dipeptidyl peptidase 4 it was 0.22 µM.

At Prolyl endopeptidase FAP, `CCN(Cc1ccccc1)[C@H]1CC[C@H]([C@H](N)Cc2cc(F)ccc2F)CC1` yielded an IC50 above 35 µM.

As to `CS(=O)(=O)N1CCC([C@H](N)Cc2cc(F)ccc2F)CC1`, the IC50 against Prolyl endopeptidase FAP is above 35 µM.

`N[C@H](Cc1cc(F)ccc1F)C1CCN(c2ccccn2)CC1` yielded an IC50 against Prolyl endopeptidase FAP above 35 µM.

In turn, `N[C@H](Cc1cc(F)ccc1F)C1CCN(c2cccnc2)CC1` registered an IC50 against Prolyl endopeptidase FAP above 35 µM.

`N[C@H](Cc1cc(F)ccc1F)C1CCN(c2ccncc2)CC1`: on Prolyl endopeptidase FAP, the IC50 was above 35 µM.

As for `N#Cc1cncc(N2CCC([C@H](N)Cc3cc(F)ccc3F)CC2)c1`, at Prolyl endopeptidase FAP, the IC50 is above 35 µM.

With `N[C@H](Cc1cc(F)ccc1F)C1CCN(c2ccc(F)nc2)CC1`, the IC50 against Prolyl endopeptidase FAP is above 35 µM.

For the molecule `CCOC(=O)c1cncc(N2CCC([C@H](N)Cc3cc(F)ccc3F)CC2)c1`, the IC50 against Prolyl endopeptidase FAP was above 35 µM.

As to `N[C@H](Cc1cc(F)ccc1F)C1CCN(c2ncccn2)CC1`, on Prolyl endopeptidase FAP, the IC50 is above 35 µM.

In the case of `COc1ncc(N2CCC([C@H](N)Cc3cc(F)ccc3F)CC2)cn1`, the IC50 against Prolyl endopeptidase FAP was above 35 µM.

On Prolyl endopeptidase FAP, `N[C@H](Cc1cc(F)ccc1F)C1CCN(c2cnc(=O)[nH]c2)CC1` displayed a 50% inhibitory concentration (IC50) above 35 µM.

As for `COC(=O)C1CCCC(N2CCC([C@H](N)Cc3cc(F)ccc3F)CC2)C1` (stereo partly specified), on Prolyl endopeptidase FAP, the half-maximal inhibitory concentration (IC50) is above 35 µM.

Turning to `N[C@H](Cc1cc(F)ccc1F)C1CCN(C2CCCC(C(=O)O)C2)CC1` (stereo partly specified), the IC50 against Prolyl endopeptidase FAP was above 35 µM.

With `NC(=O)C1CCCC(N2CCC([C@H](N)Cc3cc(F)ccc3F)CC2)C1` (stereo partly specified), on Prolyl endopeptidase FAP, the IC50 was above 35 µM.

Regarding `N[C@H](Cc1cc(F)ccc1F)[C@H]1CC[C@H](N(CCCC(F)(F)F)Cc2ccccc2)CC1` (mixture of isomers), the IC50 is 23 µM at Dipeptidyl peptidase 2, above 35 µM at Prolyl endopeptidase FAP, above 100 µM against Dipeptidyl peptidase 8 and 0.69 µM against Dipeptidyl peptidase 4.

For the molecule `NC(=O)C1CCCN([C@H]2CC[C@H]([C@H](N)Cc3cc(F)ccc3F)CC2)C1` (single isomer, unassigned), the IC50 at Prolyl endopeptidase FAP was above 35 µM.

Values taken from ChEMBL document CHEMBL1681733, “Synthesis and evaluation of [(1R)-1-amino-2-(2,5-difluorophenyl)ethyl]cyclohexanes and 4-[(1R)-1-amino-2-(2,5-difluorophenyl)ethyl]piperidines as DPP-4 inhibitors” (Bioorg Med Chem Lett, 2011).
